Assay results from patent US12472160B2, “Modified-release tiopronin compositions, kits and methods for treating cystinuria and related disorders” (ALTIBIO, INC., priority 2017, dated 2025).

How the values were obtained:
[1] = cited from earlier work
[2] = cited from earlier work; remark: listed apart in the source
[3] = Total and free plasma tiopronin and urinary tiopronin recovery in Beagle dogs after oral dosing by four regimens (Example 4); assay type: in vivo; details: for % of the dose (unchanged drug) found in urine / maximum plasma concentrations of free tiopronin / maximum plasma concentrations of total tiopronin: average, n=3 dogs; for free (unbound) tiopronin in plasma over time: FIG. 12
Experimental: (§1) The objective of this study was to evaluate total and free plasma tiopronin, and total urinary tiopronin, in an animal model (male Beagle dogs) following oral administration of tiopronin, according to various dose regimens, to determine whether different regimens, simulating modified release, would improve drug pharmacokinetics. Specifically, tiopronin formulations were administered to deliver 30 mg/kg per dog via single or multiple doses divided over a 12-hour period; and blood and urine samples then collected at different times post-dose.
Tiopronin formulations were administered to provide 30 mg/kg per dog according to four different dosage regimes (Leg 1, Leg 2, Leg 3, and Leg 4), as set forth in the table below. Leg 2, Leg 3, and Leg 4 (also referred to as Q6H, Q3H, and Q2H respectively) were designed to simulate modified-release formulations, in accordance with certain embodiments of the present invention. Following administration, blood and urine samples were collected at the time points, or over the time intervals, also as indicated below.
Preparation of Dosing Formulations: Capsules for Legs 1-4 were prepared and filled on the day of dosing, as follows. For Legs 1 and 2, tiopronin was dry mixed with avicel and mannitol to make a 40:30:30 mixture of tiopronin to avicel to mannitol, respectively; for study Legs 3 and 4, a 20:40:40 mixture of tiopronin to avicel to mannitol, respectively, was prepared. The dry mixes were custom filled with the appropriate amount of powder to deliver the specified doses to each dog based, on their respective body weights.
(§2) Animal Dosing and Sample Collection: This non-clinical study followed established practices and standard operating procedures of Absorption Systems and Absorption Systems Inc., as well as the study protocol. Study groups each included three dogs. The dogs were housed one per cage. The dogs were fasted for at least six hours prior to each administration of the formulation. Food was given approximately ten hours post initial dosing. Animals had free access to water throughout the study.
Following dosing, blood and urine samples were collected according to the schedule in Table 1.
Blood samples were collected via direct venipuncture of the jugular vein or other accessible vein of the dog, and placed in chilled polypropylene tubes containing sodium heparin as an anticoagulant. Samples were maintained chilled throughout processing. Blood samples were centrifuged at 4° C. and 3,000 rpm (revolutions per minute) for 5 minutes. The first aliquot of plasma was precipitated with methanol by combining 200 μL of plasma with 600 μL of methanol in a centrifuge tube. The samples were mixed, centrifuged at 3,000 rpm for 5 minutes. The resulting supernatant was decanted into clean, labeled polypropylene tubes. The remaining plasma volume was transferred to a chilled, labeled polypropylene tube, placed on dry ice, and stored in a freezer maintained at −60° C. to −80° C. Following taking each blood sample, 15 mL of water was given to the dog via syringe.
For study Leg 1, pre-dose urine samples were collected via free catch approximately 2 hours pre-dose. For study Legs 2, 3 and 4, pre-dose urine samples were collected via catheter approximately 2 hours pre-dose. Other urine samples were collected via free catch in the cages during the indicated interval, collected into clean bottles, and kept on cold packs. Cold packs were replenished as needed during the day. At the end of each interval, the total volume of urine was collected and recorded. Each sample was well mixed and divided into two aliquots: an approximately 5 mL first aliquot, and a second aliquot of the remaining volume. Additionally, for Leg 4 only, each dog received a 60 mL subcutaneous injection of saline (2×30 mL injections at two different sites) approximately 30 minutes prior to dosing and, if urine was not present in the animal's cage at the end of the final collection interval, the final urine sample was collected by catheter. […]

[4] = Total and free plasma tiopronin and urinary tiopronin recovery in Beagle dogs after intraduodenal administration (Example 5); assay type: in vivo
Experimental: as §1, with “intraduodenal” for “oral”, “tiopronin,” for “tiopronin, according to various dose regimens,”, “small intestine administration,” for “different regimens, simulating modified release,”, “dose;” for “or multiple doses divided over a 12-hour period;”
Tiopronin formulations were administered to provide 30 mg/kg per dog as one single intraduodenal dose. Following administration, blood and urine samples were collected at the time points, or over the time intervals, indicated below.
Preparation of Dosing Formulations: Capsules were prepared and filled on the day of dosing, as follows. Tiopronin was dry mixed with avicel and mannitol to make a 40:30:30 mixture of tiopronin to avicel to mannitol, respectively. The dry mixes were custom filled with the appropriate amount of powder to deliver the specified doses to each dog based, on their respective body weights.
as §2, with “sixteen” for “six”, “eight” for “ten”
Intraduodenal (ID) administration: Animals were anesthetized by a slow IV infusion of Propofol (6-10 mg/kg) or with an intramuscular injection of a cocktail containing ketamine (approximately 10-20 mg/kg), diazepam (3 mg/kg), and acepromazine (0.05 mg/kg) given IM about 5-10 minutes before intubation. Once animals were confirmed adequately anesthetized they were intubated and maintained using isoflurane (approximately 1-5% in oxygen 1 to 4 L/min) as necessary until dosing is complete. Formulations were administered into the proximal duodenum via endoscopic guidance to verify the dosing site. The endoscope first was maneuvered into the pyloric sphincter with camera visualization of the proximal duodenum. Once there was confirmation that the endoscope was placed between the pylorus and proximal duodenum, the test article was delivered to the proximal duodenum followed by a 5 mL flush. Upon completion of the dosing, the animals were taken off the isoflurane and allowed to recover from anesthesia. Time points began upon completion of the entire dose procedure. Following each blood sampling time point, 15 mL of water was given to each dog via syringe. […]

[5] = Stability of tiopronin in Beagle dog plasma; assay type: in vitro ADME
Experimental: (§3) Stability Testing: Finally, short term and long term stability of tiopronin in beagle dog plasma, pre-crashed plasma (plasma supernatant), and urine were assessed using two tiopronin concentrations (50 ng/mL or 500 ng/mL) under each of the following two conditions: (1) storage on the bench top for 4 hours and (2) frozen at −80° C. for up to one month. Samples were considered stable if their concentrations were within ±20% of nominal. These samples met acceptable criteria for stability and results are presented below, in Tables 5, 6, and 7, showing the % tiopronin remaining in Beagle dog plasma (Table 5), plasma supernatant (Table 6), and urine (Table 7).
as §3, with “12, 13,” for “5, 6,”, “14,” for “7,”, “12),” for “5),”, “13),” for “6),”, “14).” for “7).”

[6] = Stability of tiopronin in Beagle dog plasma supernatant (pre-crashed plasma); assay type: in vitro ADME
Experimental: as §3
as §3, with “12, 13,” for “5, 6,”, “14,” for “7,”, “12),” for “5),”, “13),” for “6),”, “14).” for “7).”

[7] = Stability of tiopronin in Beagle dog urine; assay type: in vitro ADME
Excerpt: (§4) Samples were considered stable if their concentrations were within ±20% of nominal. These samples met acceptable criteria for stability and results are presented below, in Tables 5, 6, and 7, showing the % tiopronin remaining in Beagle dog plasma (Table 5), plasma supernatant (Table 6), and urine (Table 7).
as §4, with “12, 13,” for “5, 6,”, “14,” for “7,”, “12),” for “5),”, “13),” for “6),”, “14).” for “7).”

cystinuria patients = details: cited from earlier work
[8] = Leg 1 (Q12H): PO single 30 mg/kg dose
[9] = Leg 2 (Q6H): PO two 15 mg/kg doses at 0 and 6 h
[10] = Leg 3 (Q3H): PO four 7.5 mg/kg doses at 0, 3, 6, 9 h
[11] = Leg 4: PO six 5 mg/kg doses at 0, 2, 4, 6, 8, 10 h
[12] = intraduodenal single 30 mg/kg dose, average, n=3 dogs
[13] = 50 ng/mL (low), bench top (RT) for 4 hours
[14] = 50 ng/mL (low), −80° C. freezer for 1 week
[15] = 500 ng/mL (high), bench top (RT) for 4 hours
[16] = 500 ng/mL (high), −80° C. freezer for 1 week

CC(C)(S)[C@@H](N)C(=O)O [D-penicillamine]
patients with severe side effects limiting use / who cannot tolerate the drug ([1]; human, in vivo): 50-70%
bioavailability ([1]; patients with malabsorption states, presence of antacids, or after a large meal): dramatically decreases
solubility of di-sulfide complex relative to cystine [2]: 50 times

CC(S)C(=O)NCC(=O)O (stereo not drawn) [tiopronin, alpha-mercaptopropionylglycine]
% of the dose (unchanged drug) found in urine [3, 8]: 19.9±8.51%
maximum plasma concentrations of free tiopronin [3, 8]: 11063 ± 3598 ng/mL
maximum plasma concentrations of total tiopronin [3, 8]: 27900 ± 8122 ng/mL
maximum plasma concentrations of total tiopronin ([3]; Leg 2 (Q6H): PO 30 mg/kg as two 15 mg/kg doses at 0 and 6 h): 23833 ± 5829 ng/mL
% of the dose (unchanged drug) found in urine [3, 9]: 37.5±14.5%
maximum plasma concentrations of free tiopronin [3, 9]: 8177 ± 2237 ng/mL
maximum plasma concentrations of total tiopronin ([3]; Leg 3 (Q3H): PO 30 mg/kg as four 7.5 mg/kg doses at 0, 3, 6, 9 h): 10437 ± 1201 ng/mL
% of the dose (unchanged drug) found in urine [3, 10]: 50.6±14.0%
maximum plasma concentrations of free tiopronin [3, 10]: 3143 ± 624 ng/mL
maximum plasma concentrations of total tiopronin ([3]; Leg 4: PO 30 mg/kg as six 5 mg/kg doses at 0, 2, 4, 6, 8, 10 h): 10297 ± 2199 ng/mL
time of maximum plasma concentrations of free tiopronin [3, 11]: 3 hours post dosing
% of the dose (unchanged drug) found in urine [3, 11]: 32.7±5.90%
maximum plasma concentrations of free tiopronin [3, 11]: 2323 ± 589 ng/mL
free (unbound) tiopronin in plasma over time ([3]; Legs 1 and 2 (Q12H and Q6H)): disappear from the plasma after a short period of time
free (unbound) tiopronin in plasma over time ([3]; Legs 3 and 4 (Q3H and Q2H)): maintained
urinary recovery of tiopronin, comparison of four dosing schedules ([3]; Q3H vs Q12H, Q6H, Q2H, FIG. 13): best tiopronin recovery in urine
% of the dose (unchanged drug) found in urine ([4]; ID single 30 mg/kg dose, average, n=3 dogs): 30.5±19.9%
maximum plasma concentrations of free tiopronin [4, 12]: 1643 ± 105 ng/mL
maximum plasma concentrations of total tiopronin [4, 12]: 8640 ± 5522 ng/mL
urinary recovery of tiopronin, small intestine vs oral administration ([4]; single 30 mg/kg dose, FIG. 16): better tiopronin recovery in urine
% Tiopronin Remaining in Beagle Dog Plasma [5, 13]: 109%
% Tiopronin Remaining in Beagle Dog Plasma [5, 14]: 110%
% Tiopronin Remaining in Beagle Dog Plasma ([5]; 50 ng/mL (low), −80° C. freezer for 2 weeks): 112%
% Tiopronin Remaining in Beagle Dog Plasma ([5]; 50 ng/mL (low), −80° C. freezer for 4 weeks): 95.6%
% Tiopronin Remaining in Beagle Dog Plasma [5, 15]: 87.0%
% Tiopronin Remaining in Beagle Dog Plasma [5, 16]: 95.4%
% Tiopronin Remaining in Beagle Dog Plasma ([5]; 500 ng/mL (high), −80° C. freezer for 2 weeks): 92.8%
% Tiopronin Remaining in Beagle Dog Plasma ([5]; 500 ng/mL (high), −80° C. freezer for 4 weeks): 90.4%
% Tiopronin Remaining in Beagle Dog Plasma Supernatant [6, 13]: 113%
% Tiopronin Remaining in Beagle Dog Plasma Supernatant [6, 14]: 118%
% Tiopronin Remaining in Beagle Dog Plasma Supernatant ([6]; 50 ng/mL (low), −80° C. freezer for 2 week): 105%
% Tiopronin Remaining in Beagle Dog Plasma Supernatant ([6]; 50 ng/mL (low), −80° C. freezer for 4 week): 113%
% Tiopronin Remaining in Beagle Dog Plasma Supernatant [6, 15]: 105%
% Tiopronin Remaining in Beagle Dog Plasma Supernatant [6, 16]: 112%
% Tiopronin Remaining in Beagle Dog Plasma Supernatant ([6]; 500 ng/mL (high), −80° C. freezer for 2 week): 105%
% Tiopronin Remaining in Beagle Dog Plasma Supernatant ([6]; 500 ng/mL (high), −80° C. freezer for 4 week): 116%
% Tiopronin Remaining in Beagle Dog Urine ([7]; High (2500 ng/mL), bench top (RT) for 4 hours): 84.9%
% Tiopronin Remaining in Beagle Dog Urine ([7]; High (2500 ng/mL), −80° C. freezer for 1 week): 107%
% Tiopronin Remaining in Beagle Dog Urine ([7]; High (2500 ng/mL), −80° C. freezer for 2 week): 90.9%
% Tiopronin Remaining in Beagle Dog Urine ([7]; High (2500 ng/mL), −80° C. freezer for 4 week): 96.6%
% Tiopronin Remaining in Beagle Dog Urine ([7]; Low (250 ng/mL), bench top (RT) for 4 hours): 113%
% Tiopronin Remaining in Beagle Dog Urine ([7]; Low (250 ng/mL), −80° C. freezer for 1 week): 106%
% Tiopronin Remaining in Beagle Dog Urine ([7]; Low (250 ng/mL), −80° C. freezer for 2 week): 119%
% Tiopronin Remaining in Beagle Dog Urine ([7]; Low (250 ng/mL), −80° C. freezer for 4 week): 112%
cases/patients in which the drug is discontinued (cystinuria patients; due to adverse reactions, need for frequent dosing, poor efficacy (Pak et al., 1986)): about 30%
cystinuria patients in whom medication fails (continue forming stones) (cystinuria patients; human, in vivo): 85%
